Measured values taken from patent publication US20260250318A1, “COMPOSITIONS AND METHODS FOR CROSSING THE BLOOD BRAIN BARRIER” (VOYAGER THERAPEUTICS, INC., priority 2022, published 2026).

Experiments:
[1] = test system: brains, heart, liver, muscle, and DRG of the NHPs; assay: Maturation of TTM-001 and TTM-002 capsids, NGS enrichment in NHP tissues; format: in vivo; details: relative to AAV9 control
Procedure, shortened: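 Variants carry mutations within and flanking the loop IV peptide insert: positions 450–466 were triplet-randomized, while positions 449–466 received low-frequency point mutations. The combined pool went into two NHPs, and each peptide was scored by NGS enrichment ratio against AAV9.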

[2] = test system: brain; assay: Matured TTM-001 and TTM-002 variants, NGS enrichment in mouse brain; format: in vivo, mice; details: relative to AAV9 control
[3] = NGS fold-enrichment of RNA, NHP brain
[4] = NGS fold-enrichment, DRG of NHPs
[5] = NGS fold-enrichment, NHP liver DNA
[6] = NGS fold-enrichment, NHP liver RNA
[7] = NGS fold-enrichment, NHP muscle
[8] = NGS fold-enrichment, RNA, brain of NHPs
[9] = NGS fold-enrichment, heart of NHPs
[10] = NGS fold-enrichment, liver DNA of NHPs
[11] = NGS fold-enrichment, liver RNA of NHPs
[12] = NGS fold-enrichment, muscle of NHPs
[13] = NGS fold-enrichment, brain of mice
[14] = NGS fold-enrichment, mouse brain
[15] = NGS fold-enrichment of matured AAV capsid variants, NHP brain, RNA

Sequence	Fold Enrichment relative to AAV9, Brain (NHP) [1, 3]	Fold Enrichment relative to AAV9, DRG (NHP) [1, 4]	Fold Enrichment relative to AAV9, DRG (NHP) ([1]; NGS fold-enrichment, NHP DRG)	Fold Enrichment relative to AAV9, Heart (NHP) ([1]; NGS fold-enrichment, NHP heart)	Fold Enrichment relative to AAV9, Liver DNA (NHP) [1, 5]	Fold Enrichment relative to AAV9, Liver RNA (NHP) [1, 6]	Fold Enrichment relative to AAV9, Muscle (NHP) [1, 7]	Fold Enrichment relative to AAV9, Brain (NHP) [1, 8]	Fold Enrichment relative to AAV9, Heart (NHP) [1, 9]	Fold Enrichment relative to AAV9, Liver DNA (NHP) [1, 10]	Fold Enrichment relative to AAV9, Liver RNA (NHP) [1, 11]	Fold Enrichment relative to AAV9, Muscle (NHP) [1, 12]	Fold Enrichment relative to AAV9, Brain (Mouse) [2, 13]	Fold Enrichment relative to AAV9, Brain (Mouse) [2, 14]	further results
KTFNGSGSPHSKAQGQQT	99.253 fold	0.000 fold	0.000 fold	0.208 fold	0.099 fold	0.128 fold	0.000 fold	99.253 fold	0.208 fold	0.099 fold	0.128 fold	0.000 fold	81.459 fold	81.459 fold	
KTVDGHDSPHKSGQKQQT	78.802 fold		0.000 fold	0.069 fold	0.342 fold	0.157 fold	0.000 fold							7.200 fold	
KAINGYDSPHKSGQKQQT	83.803 fold		0.041 fold	9.491 fold	0.150 fold	0.031 fold	0.000 fold							13.057 fold	
KSIYGHESPHKSGQNQQS	90.947 fold		0.817 fold	0.310 fold	0.243 fold	0.000 fold	0.000 fold							8.064 fold	
KTVNGHDSPHKSRQSQQT	76.458 fold		0.000 fold	0.063 fold	0.021 fold	0.000 fold	0.000 fold							8.136 fold	
KTISGSGSPHSKAQYQHT		0.000 fold						66.739 fold	0.000 fold	0.191 fold	0.000 fold	0.000 fold	59.822 fold		
KTINGPGSPHSKAHNQQT	115.742 fold	0.146 fold	0.146 fold	0.000 fold	0.513 fold	0.000 fold	0.235 fold	115.742 fold	0.000 fold	0.513 fold	0.000 fold	0.235 fold	52.508 fold	52.508 fold	
KTIRENGSPHSKAQNQQT															Fold Enrichment relative to AAV9, Brain (NHP) [1, 15]: 55.605 fold; Fold Enrichment relative to AAV9, DRG (NHP) ([1]; NHP DRG): 0.000 fold; Fold Enrichment relative to AAV9, Heart (NHP) ([1]; NHP heart): 0.000 fold; Fold Enrichment relative to AAV9, Liver DNA (NHP) ([1]; NHP liver, DNA): 0.257 fold; Fold Enrichment relative to AAV9, Liver RNA (NHP) ([1]; NHP liver, RNA): 0.131 fold; Fold Enrichment relative to AAV9, Muscle (NHP) ([1]; NHP muscle): 0.016 fold; Fold Enrichment relative to AAV9, Brain (Mouse) ([2]; mouse brain): 95.931 fold
KTINGGGSPHSKSQNQHT		0.000 fold						67.773 fold	0.057 fold	0.220 fold	0.000 fold	0.000 fold	100.748 fold		
KTIPKNGSPHSKAQNQQT															Fold Enrichment relative to AAV9, Brain (NHP) [1, 15]: 53.824 fold; Fold Enrichment relative to AAV9, DRG (NHP) ([1]; NHP DRG): 0.000 fold; Fold Enrichment relative to AAV9, Heart (NHP) ([1]; NHP heart): 0.032 fold; Fold Enrichment relative to AAV9, Liver DNA (NHP) ([1]; NHP liver, DNA): 0.178 fold; Fold Enrichment relative to AAV9, Liver RNA (NHP) ([1]; NHP liver, RNA): 0.115 fold; Fold Enrichment relative to AAV9, Muscle (NHP) ([1]; NHP muscle): 0.000 fold; Fold Enrichment relative to AAV9, Brain (Mouse) ([2]; mouse brain): 77.458 fold
KTINGHDSPHKSGQNKLE	76.204 fold		0.000 fold	1.430 fold	0.031 fold	0.015 fold	0.000 fold							12.419 fold	
KTDRNSGSPHSKAQNQQT															Fold Enrichment relative to AAV9, Brain (NHP) [1, 15]: 54.495 fold; Fold Enrichment relative to AAV9, DRG (NHP) ([1]; NHP DRG): 0.000 fold; Fold Enrichment relative to AAV9, Heart (NHP) ([1]; NHP heart): 0.000 fold; Fold Enrichment relative to AAV9, Liver DNA (NHP) ([1]; NHP liver, DNA): 0.241 fold; Fold Enrichment relative to AAV9, Liver RNA (NHP) ([1]; NHP liver, RNA): 0.823 fold; Fold Enrichment relative to AAV9, Muscle (NHP) ([1]; NHP muscle): 0.000 fold; Fold Enrichment relative to AAV9, Brain (Mouse) ([2]; mouse brain): 85.823 fold
KNCVGSGSPHSKAQNQQT		0.000 fold						60.535 fold	0.000 fold	0.282 fold	0.018 fold	0.000 fold	96.175 fold		
KTINGGGSPHSKAQNPPT		0.000 fold						63.041 fold	0.082 fold	0.057 fold	0.000 fold	0.000 fold	64.045 fold		
KTINGSVSPHGKAQNQLT (peptide inserted in AAV capsid)		0.000 fold						73.525 fold	0.061 fold	0.053 fold	0.000 fold	0.067 fold	51.358 fold		
KTINGCGSPHASGQNQQT	132.540 fold		0.000 fold	0.121 fold	0.059 fold	0.000 fold	0.042 fold							1.857 fold	
KTINGSGSPHSKAQIPPT		0.000 fold						61.258 fold	0.000 fold	0.115 fold	0.758 fold	0.000 fold	87.661 fold		
